Four compounds from BindingDB's records for doi:10.1046/j.1472-8206.2002.00076.x (Shinshu University, 2002) can be followed below.

What is called Ki is a dissociation constant, usually derived from enzyme kinetics or from competition with a known ligand. A high value points to lower affinity.

Molecules are shown by their SMILES. Side chains are listed from the residue outwards. Peptide text beside a SMILES is read from it. * marks the point of attachment. Nicotinoyl = O=C(c1cccnc1)*; Cbz = O=C(OCc1ccccc1)*

Assay [1] deals with T1, Type-2 angiotensin II receptor (Rattus norvegicus, UniProt P35351).
T1 sequence (P35351 whole entry): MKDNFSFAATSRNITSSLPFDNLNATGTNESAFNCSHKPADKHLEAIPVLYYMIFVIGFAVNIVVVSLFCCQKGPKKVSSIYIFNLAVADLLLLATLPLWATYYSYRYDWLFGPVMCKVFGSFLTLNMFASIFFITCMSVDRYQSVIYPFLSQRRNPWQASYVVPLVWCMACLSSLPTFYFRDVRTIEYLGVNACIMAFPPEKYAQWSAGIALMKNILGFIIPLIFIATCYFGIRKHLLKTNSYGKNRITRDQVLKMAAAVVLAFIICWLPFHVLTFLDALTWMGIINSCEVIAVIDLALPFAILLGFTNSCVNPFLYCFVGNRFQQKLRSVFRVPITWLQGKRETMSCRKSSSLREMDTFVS

Assay [2] has as its target T2, Type-1 angiotensin II receptor (Homo sapiens, UniProt P30556).
T2 sequence (P30556 whole entry): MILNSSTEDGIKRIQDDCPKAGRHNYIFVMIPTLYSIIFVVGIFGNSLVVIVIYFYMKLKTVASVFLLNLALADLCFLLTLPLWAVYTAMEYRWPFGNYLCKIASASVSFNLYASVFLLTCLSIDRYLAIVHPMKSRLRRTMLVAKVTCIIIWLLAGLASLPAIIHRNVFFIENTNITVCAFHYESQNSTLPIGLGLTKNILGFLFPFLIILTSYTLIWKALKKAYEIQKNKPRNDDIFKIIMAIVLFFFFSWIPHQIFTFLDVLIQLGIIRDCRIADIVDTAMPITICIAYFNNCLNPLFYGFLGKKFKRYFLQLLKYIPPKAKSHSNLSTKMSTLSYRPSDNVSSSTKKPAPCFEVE

Assay [3] concerns the target T3, Type-1 angiotensin II receptor B (Rattus norvegicus, UniProt P29089).
T3 sequence (P29089 whole entry): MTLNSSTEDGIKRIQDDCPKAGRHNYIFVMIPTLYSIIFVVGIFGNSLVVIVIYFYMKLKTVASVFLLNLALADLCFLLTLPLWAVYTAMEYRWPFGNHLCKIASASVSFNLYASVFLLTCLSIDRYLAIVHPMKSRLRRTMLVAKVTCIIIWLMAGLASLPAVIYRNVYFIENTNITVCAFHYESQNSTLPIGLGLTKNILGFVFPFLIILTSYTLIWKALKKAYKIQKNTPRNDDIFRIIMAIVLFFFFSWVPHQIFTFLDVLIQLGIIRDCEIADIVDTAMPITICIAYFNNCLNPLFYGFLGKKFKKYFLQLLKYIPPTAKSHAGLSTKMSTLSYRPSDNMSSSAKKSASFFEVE

In assay [4] the target is T4, Type-1 angiotensin II receptor A (Rattus norvegicus, UniProt P25095).
T4 sequence (P25095 whole entry): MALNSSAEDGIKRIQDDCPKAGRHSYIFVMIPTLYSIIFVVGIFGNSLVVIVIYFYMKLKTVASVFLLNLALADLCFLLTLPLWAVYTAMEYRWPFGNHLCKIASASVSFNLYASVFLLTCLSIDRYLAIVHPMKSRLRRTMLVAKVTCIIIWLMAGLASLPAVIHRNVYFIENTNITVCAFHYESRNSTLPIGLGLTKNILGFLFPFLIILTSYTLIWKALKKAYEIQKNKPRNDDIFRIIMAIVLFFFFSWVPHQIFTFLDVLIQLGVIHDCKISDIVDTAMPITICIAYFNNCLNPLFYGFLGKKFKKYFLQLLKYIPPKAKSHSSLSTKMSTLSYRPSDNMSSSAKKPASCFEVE

Consider `CCOc1nc2cccc(C(=O)O)c2n1Cc1ccc(-c2ccccc2-c2nnn[nH]2)cc1`, for which the inhibitory constant (Ki) in assay [1] was greater than 10000 nM; in assay [2], 0.17 nM; in assay [3], 0.12 nM; in assay [4], 0.12 nM.
In the case of `CCCCc1nc(Cl)c(C(=O)O)n1Cc1ccc(-c2ccccc2-c2nn[nH]n2)cc1` [2-Butyl-5-chloro-3-[2'-(1H-tetrazol-5-yl)-biphenyl-4-ylmethyl]-3H-imidazole-4-carboxylic acid], the Ki in assay [1] is greater than 10000 nM; in assay [4], 0.57 nM.
Regarding `CCc1nn(Cc2ccc(-c3ccccc3-c3nnn[nH]3)cc2)c(=NC(=O)C2=C(C(=O)O)CCC2)s1` [KRH-594], the Ki in assay [1] amounted to 9360 nM; in assay [2], 1.24 nM; in assay [3], 0.67 nM; in assay [4], 1.02 nM.
Compound `CC[C@H](C)[C@H](NC(=O)[C@@H]1CCCN1C(=O)[C@H](Cc1c[nH]cn1)NC(=O)[C@H](CCCCNC(=O)[C@H](CCCN=C(N)N)NC(=O)OCc1ccccc1)NC(=O)[C@H](Cc1ccc(O)cc1)NC(=O)c1cccnc1)C(=O)O` [NSC_123794] (Nicotinoyl-YK([Arg-Cbz])HPI-OH) showed a Ki in assay [1] of 0.37 nM.
